Each structure is given as a SMILES string.

T1 sequence (Q9Y5N1 with tags, fused parts or gaps E19D): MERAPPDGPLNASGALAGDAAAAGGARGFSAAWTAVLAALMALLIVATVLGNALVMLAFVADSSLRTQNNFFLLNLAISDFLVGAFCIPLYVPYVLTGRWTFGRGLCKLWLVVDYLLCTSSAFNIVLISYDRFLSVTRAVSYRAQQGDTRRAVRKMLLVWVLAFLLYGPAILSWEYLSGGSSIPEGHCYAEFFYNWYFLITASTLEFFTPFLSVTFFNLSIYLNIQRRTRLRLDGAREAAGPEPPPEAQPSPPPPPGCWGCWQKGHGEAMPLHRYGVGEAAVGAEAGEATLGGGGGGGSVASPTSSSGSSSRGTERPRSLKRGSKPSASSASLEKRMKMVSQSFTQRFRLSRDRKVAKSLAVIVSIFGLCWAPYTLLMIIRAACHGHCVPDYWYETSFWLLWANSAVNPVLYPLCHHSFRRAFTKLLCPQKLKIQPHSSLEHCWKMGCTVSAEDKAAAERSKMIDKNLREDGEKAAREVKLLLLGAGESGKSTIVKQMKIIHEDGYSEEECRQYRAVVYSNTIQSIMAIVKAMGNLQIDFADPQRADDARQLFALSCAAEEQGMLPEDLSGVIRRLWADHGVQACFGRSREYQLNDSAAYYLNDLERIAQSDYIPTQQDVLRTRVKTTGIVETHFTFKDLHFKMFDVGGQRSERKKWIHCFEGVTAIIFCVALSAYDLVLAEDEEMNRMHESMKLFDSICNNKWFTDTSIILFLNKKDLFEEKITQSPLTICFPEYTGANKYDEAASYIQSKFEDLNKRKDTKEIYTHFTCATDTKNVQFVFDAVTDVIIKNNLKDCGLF

One assay has as its target T1, chimeric human H3 receptor (Homo sapiens, UniProt Q9Y5N1, E19D).
T1 construct: made in house; host or cells: Sf9 insect cells (baculovirus infection); P2 membrane preparation
Put plainly: Chimeric human H3 receptor screening GTP binding assay (inhibition of histamine-stimulated GTP-gamma35S binding, Example 8). As to conditions: 1 h; "+" in Ki of Table II; assay of Example 8; read-out: percent inhibition of agonist-induced GTP-gammaS binding to H3. Type of assay: biochemical. In short, it runs like this: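 Sf9 membranes co-expressing the chimeric receptor and a heterotrimeric G-protein (35 μg protein) in Tris pH 7.4 buffer with 10 μM GDP; compound at 4 μM plus 1 μM histamine, 125 pM GTP-gamma35S, 60 min at room temperature. Filter-bound radioactivity read; non-specific binding defined with 10 uM GTP-gammaS; percent inhibition of histamine signal.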
As usually defined, the inhibition is how much of the control response was suppressed. Consider `CCOc1ccsc1C(=O)N1CCN(CC(=O)N2CCN(C3CCC3)CC2)CC1` [Compound 549, 1-cyclobutyl-4-({4-[(3-ethoxy-2-thienyl)carbonyl]piperazin-1-yl}acetyl)piperazine], for which the inhibition at 4 µM is above 90%.
On the same count and under the same terms, then `COc1ccc(OC)c(/C=C/C(=O)N2CCN(CC(=O)N3CCN(C4CCC4)CC3)CC2)c1` [Compound 521, 1-cyclobutyl-4-({4-[(2E)-3-(2,5-dimethoxyphenyl)prop-2-enoyl]piperazin-1-yl}acetyl)piperazine], with above 90%; and `O=C(/C=C/c1ccccc1)N1CCN(CC(=O)N2CCN(C3CCC3)CC2)CC1` [Compound 532, 1-cyclobutyl-4-({4-[(2E)-3-phenylprop-2-enoyl]piperazin-1-yl}acetyl)piperazine], with above 90%.
As to `O=C(Cc1ccc(Oc2ccccc2)cc1)N1CCN(CC(=O)N2CCN(C3CCC3)CC2)CC1` [Compound 567, 1-cyclobutyl-4-({4-[(4-phenoxyphenyl)acetyl]piperazin-1-yl}acetyl)piperazine], the inhibition at 4 µM is above 90%.
As to `O=C(COc1cccc2ccccc12)N1CCN(CC(=O)N2CCN(C3CCC3)CC2)CC1` [Compound 500, 1-cyclobutyl-4-({4-[(1-naphthyloxy)acetyl]piperazin-1-yl}acetyl)piperazine], the inhibition at 4 µM was above 90%.
As to `O=C(CN1CCN(C(=O)c2cc(C(F)(F)F)cc(C(F)(F)F)c2)CC1)N1CCN(C2CCC2)CC1` [Compound 456, 1-[3,5-bis(trifluoromethyl)benzoyl]-4-[2-(4-cyclobutylpiperazin-1-yl)-2-oxoethyl]piperazine], the inhibition at 4 µM is above 90%.
With `COc1ccc(/C=C/C(=O)N2CCN(CC(=O)N3CCN(C4CCC4)CC3)CC2)c(OC)c1OC` [Compound 515, 1-cyclobutyl-4-({4-[(2E)-3-(2,3,4-trimethoxyphenyl)prop-2-enoyl]piperazin-1-yl}acetyl)piperazine], the inhibition at 4 µM is above 90%.
On to `O=C(COc1ccc2ccccc2c1)N1CCN(CC(=O)N2CCN(C3CCC3)CC2)CC1` [Compound 540, 1-cyclobutyl-4-({4-[(2-naphthyloxy)acetyl]piperazin-1-yl}acetyl)piperazine], for which the inhibition at 4 µM is above 90%.
Consider `Cc1ccc(C)c(OCC(=O)N2CCN(CC(=O)N3CCN(C4CCC4)CC3)CC2)c1` [Compound 510, 1-cyclobutyl-4-({4-[(2,5-dimethylphenoxy)acetyl]piperazin-1-yl}acetyl)piperazine], for which the inhibition at 4 µM was above 90%.
The same measure, in the same setting: then `C=CCSc1ncccc1C(=O)N1CCN(CC(=O)N2CCN(C3CCC3)CC2)CC1` [Compound 475, 1-{[2-(allythio)pyridin-3-yl]carbonyl}-4-[2-(4-cyclobutylpiperazin-1-yl)-2-oxoethyl]piperazine], with above 90%.
As for `O=C(/C=C/c1ccc(Cl)cc1Cl)N1CCN(CC(=O)N2CCN(C3CCC3)CC2)CC1` [Compound 519, 1-cyclobutyl-4-({4-[(2E)-3-(2,4-dichlorophenyl)prop-2-enoyl]piperazin-1-yl}acetyl)piperazine], the inhibition at 4 µM is above 90%.

Still in this assay, the particulars now being: 1 h; Table II "Ki", symbol "+": assay described in Example 8; read-out: percent inhibition of agonist-induced GTP-gammaS binding to H3.
Take `O=C(CN1CCN(C(=O)C(c2ccccc2)c2ccccc2)CC1)N1CCN(C2CCC2)CC1` [Compound 794, 1-cyclobutyl-4-{[4-(diphenylacetyl)piperazin-1-yl]acetyl}piperazine]: the inhibition at 4 µM is above 90%.
On to `CCCOc1ccc(C(=O)N2CCN(CC(=O)N3CCN(C4CCC4)CC3)CC2)cc1` [Compound 788, 1-cyclobutyl-4-{[4-(4-propoxybenzoyl)piperazin-1-yl]acetyl}piperazine], for which the inhibition at 4 µM is above 90%.

The same assay, now with this note: 1 h; Table II, "+" in the column headed Ki; assay of Example 8; read-out: percent inhibition of agonist-induced GTP-gammaS binding to H3.
With `O=C(CN1CCN(C(=O)c2ccc(OCC(F)(F)F)nc2)CC1)N1CCN(C2CCC2)CC1` [Compound 636, 1-cyclobutyl-4-[(4-{[6-(2,2,2-trifluoroethoxy)pyridin-3-yl]carbonyl}piperazin-1-yl)acetyl]piperazine], the inhibition at 4 µM was above 90%.
On to `CCOc1ccc(C(=O)N2CCN(CC(=O)N3CCN(C4CCC4)CC3)CC2)cc1OCC` [Compound 728, 1-cyclobutyl-4-{[4-(3,4-diethoxybenzoyl)piperazin-1-yl]acetyl}piperazine], for which the inhibition at 4 µM was above 90%.
`O=C(CN1CCN(C(=O)c2ccc(OC(F)F)cc2)CC1)N1CCN(C2CCC2)CC1` [Compound 596, 1-cyclobutyl-4-({4-[4-(difluoromethoxy)benzoyl]piperazin-1-yl}acetyl)piperazine]: the inhibition at 4 µM was above 90%.
As for `COc1cccc(C(=O)N2CCN(CC(=O)N3CCN(C4CCC4)CC3)CC2)c1OC` [Compound 670, 1-cyclobutyl-4-{[4-(2,3-dimethoxybenzoyl)piperazin-1-yl]acetyl}piperazine], the inhibition at 4 µM was above 90%.
Regarding `Cc1nc(-c2ccc(C(F)(F)F)cc2)sc1C(=O)N1CCN(CC(=O)N2CCN(C3CCC3)CC2)CC1` [Compound 660, 1-cyclobutyl-4-{[4-({4-methyl-2-[4-(trifluoromethyl)phenyl]-1,3-thiazol-5-yl}carbonyl)piperazin-1-yl]acetyl}piperazine], the inhibition at 4 µM was above 90%.
In the case of `O=C(/C=C/c1ccc(C(F)(F)F)cc1)N1CCN(CC(=O)N2CCN(C3CCC3)CC2)CC1` [Compound 616, 1-cyclobutyl-4-[(4-{(2E)-3-[4-(trifluoromethyl)phenyl]prop-2-enoyl}piperazin-1-yl)acetyl]piperazine], the inhibition at 4 µM is above 90%.
On to `CSc1sc(C(=O)N2CCN(CC(=O)N3CCN(C4CCC4)CC3)CC2)c2c1C=CCC2` [Compound 625, 1-cyclobutyl-4-[(4-{[3-(methylthio)-6,7-dihydro-2-benzothien-1-yl]carbonyl}piperazin-1-yl)acetyl]piperazine], for which the inhibition at 4 µM was above 90%.
On to `O=C(Cc1ccc2ccccc2c1)N1CCN(CC(=O)N2CCN(C3CCC3)CC2)CC1` [Compound 717, 1-cyclobutyl-4-{[4-(2-naphthylacetyl)piperazin-1-yl]acetyl}piperazine], for which the inhibition at 4 µM is above 90%.
As for `Cc1ccc(Oc2ccccc2C(=O)N2CCN(CC(=O)N3CCN(C4CCC4)CC3)CC2)cc1` [Compound 576], the inhibition at 4 µM was above 90%.
On the same count and under the same terms, with `CSc1ccc(C(=O)N2CCN(CC(=O)N3CCN(C4CCC4)CC3)CC2)s1` [Compound 633, 1-cyclobutyl-4-[(4-{[5-(methylthio)-2-thienyl]carbonyl}piperazin-1-yl)acetyl]piperazine] the figure was above 90%; with `O=C(CN1CCN(C(=O)c2ccc3ccccc3c2)CC1)N1CCN(C2CCC2)CC1` [Compound 716, 1-cyclobutyl-4-{[4-(2-naphthoyl)piperazin-1-yl]acetyl}piperazine], above 90%.

Still in this assay, the particulars now being: 1 h; assay described in Example 8; symbol + in column headed Ki of Table II; read-out: percent inhibition of agonist-induced GTP-gammaS binding to H3.
With `COc1ccc(Br)c(C(=O)N2CCN(CC(=O)N3CCN(C4CCC4)CC3)CC2)c1` [Compound 271, 1-(2-bromo-5-methoxybenzoyl)-4-[2-(4-cyclobutylpiperazin-1-yl)-2-oxoethyl]piperazine], the inhibition at 4 µM was above 90%.
Turning to `COc1cc(C(=O)N2CCN(CC(=O)N3CCN(C4CCC4)CC3)CC2)cc(Cl)n1` [Compound 275, 1-(2-chloro-6-methoxyisonicotinoyl)-4-[2-(4-cyclobutylpiperazin-1-yl)-2-oxoethyl]piperazine], the inhibition at 4 µM was above 90%.
Take `Cn1nc(C(C)(C)C)cc1C(=O)N1CCN(CC(=O)N2CCN(C3CCC3)CC2)CC1` [Compound 401, 1-[(3-tert-butyl-1-methyl-1H-pyrazol-5-yl)carbonyl]-4-[2-(4-cyclobutylpiperazin-1-yl)-2-oxoethyl]piperazine]: the inhibition at 4 µM was above 90%.
On to `O=C(COc1cccc(Cl)c1)N1CCN(CC(=O)N2CCN(C3CCC3)CC2)CC1` [Compound 399, 1-[(3-chlorophenoxy)acetyl]-4-[2-(4-cyclobutylpiperazin-1-yl)-2-oxoethyl]piperazine], for which the inhibition at 4 µM is above 90%.
`Cc1ccc(C(=O)N2CCN(CC(=O)N3CCN(C4CCC4)CC3)CC2)cc1Br` [Compound 292, 1-(3-bromo-4-methylbenzoyl)-4-[2-(4-cyclobutylpiperazin-1-yl)-2-oxoethyl]piperazine]: the inhibition at 4 µM was above 90%.
For `O=C(CN1CCN(C(=O)c2ccc(F)c(Br)c2)CC1)N1CCN(C2CCC2)CC1` [Compound 291, 1-(3-bromo-4-fluorobenzoyl)-4-[2-(4-cyclobutylpiperazin-1-yl)-2-oxoethyl]piperazine], the inhibition at 4 µM was above 90%.
With `O=C(CN1CCN(C(=O)c2ccnc(Cl)c2)CC1)N1CCN(C2CCC2)CC1` [Compound 279, 1-(2-chloroisonicotinoyl)-4-[2-(4-cyclobutylpiperazin-1-yl)-2-oxoethyl]piperazine], the inhibition at 4 µM was above 90%.
Still for that read-out and setting: then `O=C(Cc1ccc(F)cc1Cl)N1CCN(CC(=O)N2CCN(C3CCC3)CC2)CC1` [Compound 381, 1-[(2-chloro-4-fluorophenyl)acetyl]-4-[2-(4-cyclobutylpiperazin-1-yl)-2-oxoethyl]piperazine], with above 90%.

The assay is the same for the next values; noted with them: 1 h; assay of Example 8; "+" in Ki of Table II; read-out: percent inhibition of agonist-induced GTP-gammaS binding to H3.
Turning to `Nc1cc(Cl)ccc1C(=O)N1CCN(CC(=O)N2CCN(C3CCC3)CC2)CC1` [Compound 1163, 5-chloro-2-({4-[2-(4-cyclobutylpiperazin-1-yl)-2-oxoethyl]piperazin-1-yl}carbonyl)aniline], the inhibition at 4 µM was above 90%.
`Nc1ccc(Cl)cc1C(=O)N1CCN(CC(=O)N2CCN(C3CCC3)CC2)CC1` [Compound 1151, 4-chloro-2-({4-[2-(4-cyclobutylpiperazin-1-yl)-2-oxoethyl]piperazin-1-yl}carbonyl)aniline]: the inhibition at 4 µM was above 90%.
